Data from patent US8062669B2, “Vectorization system comprising nanoparticles of homogenous size of at least one polymer and at least one positively charged polysaccharide and method for the preparation thereof” (Bioalliance Pharma, priority 2002, dated 2011).

Method for CEM 4FX cells: (§1) The NIH 3T3 and NIH 3T3 EWS-Fli-1 (adherent cells) were sown on 6-well plates at 100,000 cells per well in their culture medium without puromycin and the IW35 cells (cells in suspension) in 12-well plates at the rate of 750,000 cells per well. Other cells in suspension CEM 4FX were also tested. They were sown at 10,000 cells per well in 96-well plates.
(§2) Different concentrations of CTAB and chitosan of various molecular weight were tested.
(§3) Two controls were used and corresponded to the cells in the culture medium on the one hand and in the culture medium containing 100 μl of NaCl 150 mM on the other hand. After 24 hours of incubation, the measurements of cytotoxicity were performed by a test measuring the activity of the mitochondrial dehydrogenase enzymes of the living cells by oxidation of MTT (3-(4,5-dimethyl thiazol-2-yl)-2,5-diphenyl tetrazolium bromide; SIGMA) in formazan. The amount of formazan produced is directly proportional to the number of metabolically active live cells. The cells were washed with PBS and 1 ml of the medium was added. The cells were then incubated at 37° C. with 100 μl of a solution of MTT (5 mg/ml in PBS) for 3 hours. 1 ml of a lysis solution (10% SDS, 10 mM Tris) was then added to each well. The cells were incubated at 37° C. overnight. The medium was homogenized and the optical density was read at 560 nm (Dynatech MRX).
Method for IW35 cells: as §1, §2, §3
Method for NIH 3T3 EWS-Fli1 cells: (§4) The NIH 3T3 and NIH 3T3 EWS-Fli-1 (adherent cells) were sown on 6-well plates at 100,000 cells per well in their culture medium without puromycin and the IW35 cells (cells in suspension) in 12-well plates at the rate of 750,000 cells per well.
(§5) For the first two cell types, the cells were sown 24 hours prior to their transfection. The medium was then eliminated and 100 μl of solution of the complex to be tested was brought into contact with the cells in 900 μl of medium.
as §2
(§6) Two controls were used and corresponded to the cells in the culture medium on the one hand and in the culture medium containing 100 μl of NaCl 150 mM on the other hand. After 24 hours of incubation, the measurements of cytotoxicity were performed by a test measuring the activity of the mitochondrial dehydrogenase enzymes of the living cells by oxidation of MTT (3-(4,5-dimethyl thiazol-2-yl)-2,5-diphenyl tetrazolium bromide; SIGMA) in formazan. The amount of formazan produced is directly proportional to the number of metabolically active live cells. The cells were washed with PBS and 1 ml of the medium was added. The cells were then incubated at 37° C. with 100 μl of a solution of MTT (5 mg/ml in PBS) for 3 hours. […] The medium was homogenized and the optical density was read at 560 nm (Dynatech MRX).
Method for NIH 3T3 cells: as §4, §5, §2, §6

CCCCCCCCCCCCCCCC[N+](C)(C)C.[Br-] [CTAB, cetyl trimethyl ammonium bromide]
toxicity (NIH 3T3 cells): notable toxicity
toxicity (CEM 4FX cells): elevated toxicity at low concentrations
toxicity (IW35 cells): elevated toxicity at low concentrations
toxicity (NIH 3T3 EWS-Fli1 cells): notable toxicity
